Reference: ChEMBL document CHEMBL1201862, “PubChem BioAssay data set” (2004)
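Cultured in 96-well plates, cells were exposed to test compound for 48 hours across five concentrations. GI50 marks 50% less growth.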 The source made the active and inactive calls. Rule as the data show it: active = GI50 up to about 1.1 µM and inactive = higher.

How the values were obtained:
Assay in all cases: NCI anticancer screen, dose series, 48 h
[1] = tested on: KM-20L2
[2] = tested on: OVCAR-4
[3] = tested on: DMS-114
[4] = tested on: SR
[5] = tested on: NCI-H226
[6] = tested on: SF-268
[7] = tested on: SK-MEL-5
[8] = tested on: Malme-3M
[9] = tested on: K562
[10] = tested on: SK-OV-3
[11] = tested on: OVCAR-8
[12] = tested on: CCRF-CEM
[13] = tested on: DLD-1
[14] = tested on: NCI-H522
[15] = tested on: HCT-116
[16] = tested on: U-251
[17] = tested on: A498
[18] = tested on: RPMI-8226
[19] = tested on: COLO 205
[20] = tested on: HOP-92
[21] = tested on: UACC-257
[22] = tested on: OVCAR-5
[23] = tested on: CAKI-1
[24] = tested on: SN12C
[25] = tested on: SNB-78
[26] = tested on: RXF 393
[27] = tested on: M19-MEL
[28] = tested on: HCT-15
[29] = tested on: DMS-273
[30] = tested on: SK-MEL-28
[31] = tested on: SK-MEL-2
[32] = tested on: SNB-75
[33] = tested on: SW-620
[34] = tested on: KM12
[35] = tested on: HCC 2998
[36] = tested on: SNB-19
[37] = tested on: LOX IMVI
[38] = tested on: XF498
[39] = tested on: LXFL 529
[40] = tested on: M14
[41] = tested on: UACC-62
[42] = tested on: ACHN
[43] = tested on: OVCAR-3
[44] = tested on: TK-10
[45] = tested on: NCI-H460
[46] = tested on: IGROV-1
[47] = tested on: HT-29
[48] = tested on: UO-31
[49] = tested on: A549
[50] = tested on: SF-295
[51] = tested on: MOLT-4
[52] = tested on: NCI-H23
[53] = tested on: 786-0
[54] = tested on: HOP-62
[55] = tested on: SF-539
[56] = tested on: EKVX
[57] = tested on: HL-60
[58] = tested on: HOP-18

Compound: CS(=O)(=O)c1ccc(COP(N)(=O)N(CCCl)CCCl)cc1 (centres undefined)
- GI50 [1]: > 100 µM (inactive)
- GI50 [2]: > 100 µM (inactive)
- GI50 [3]: > 100 µM (inactive)
- GI50 [4]: > 100 µM (inactive)
- GI50 [5]: > 100 µM (inactive)
- GI50 [6]: > 100 µM (inactive)
- GI50 [7]: > 100 µM (inactive)
- GI50 [8]: > 100 µM (inactive)
- GI50 [9]: > 100 µM (inactive)
- GI50 [10]: > 100 µM (inactive)
- GI50 [11]: > 100 µM (inactive)
- GI50 [12]: > 100 µM (inactive)
- GI50 [13]: > 100 µM (inactive)
- GI50 [14]: > 100 µM (inactive)
- GI50 [15]: > 100 µM (inactive)
- GI50 [16]: > 100 µM (inactive)
- GI50 [17]: > 100 µM (inactive)
- GI50 [18]: > 100 µM (inactive)
- GI50 [19]: > 100 µM (inactive)
- GI50 [20]: > 100 µM (inactive)
- GI50 [21]: > 100 µM (inactive)
- GI50 [22]: > 100 µM (inactive)
- GI50 [23]: > 100 µM (inactive)
- GI50 [24]: > 100 µM (inactive)
- GI50 [25]: > 100 µM (inactive)
- GI50 [26]: > 100 µM (inactive)
- GI50 [27]: > 100 µM (inactive)
- GI50 [28]: > 100 µM
- GI50 [29]: > 100 µM (inactive)
- GI50 [30]: > 100 µM (inactive)
- GI50 [31]: > 100 µM (inactive)
- GI50 [32]: > 100 µM (inactive)
- GI50 [33]: > 100 µM (inactive)
- GI50 [34]: > 100 µM (inactive)
- GI50 [35]: > 100 µM (inactive)
- GI50 [36]: > 100 µM (inactive)
- GI50 [37]: > 100 µM (inactive)
- GI50 [38]: > 100 µM (inactive)
- GI50 [39]: > 100 µM (inactive)
- GI50 [40]: > 100 µM (inactive)
- GI50 [41]: > 100 µM (inactive)
- GI50 [42]: > 100 µM (inactive)
- GI50 [43]: > 100 µM (inactive)
- GI50 [44]: > 100 µM (inactive)
- GI50 [45]: > 100 µM (inactive)
- GI50 [46]: > 100 µM (inactive)
- GI50 [47]: > 100 µM (inactive)
- GI50 [48]: > 100 µM (inactive)
- GI50 [49]: > 100 µM (inactive)
- GI50 [50]: > 100 µM (inactive)
- GI50 [51]: > 100 µM (inactive)
- GI50 [52]: > 100 µM (inactive)
- GI50 [53]: > 100 µM (inactive)
- GI50 [54]: > 100 µM (inactive)
- GI50 [55]: > 100 µM (inactive)

Compound: O=C(N/N=C/c1ccccc1O)c1cccc([N+](=O)[O-])c1
- GI50 [1]: 8.49 µM (inactive)
- GI50 [2]: 50.5 µM (inactive)
- GI50 [3]: 3.65 µM (inactive)
- GI50 [4]: 3.78 µM (inactive)
- GI50 [6]: 15.7 µM (inactive)
- GI50 [7]: 9.98 µM (inactive)
- GI50 [8]: 30.8 µM (inactive)
- GI50 [9]: 22.4 µM (inactive)
- GI50 [10]: 15 µM (inactive)
- GI50 [11]: 6.95 µM (inactive)
- GI50 [12]: 3.03 µM (inactive)
- GI50 [13]: 45.7 µM (inactive)
- GI50 [14]: 32.7 µM (inactive)
- GI50 [15]: 22.5 µM (inactive)
- GI50 [16]: 26.2 µM (inactive)
- GI50 [17]: 76.7 µM (inactive)
- GI50 [18]: 8.04 µM (inactive)
- GI50 [56]: 21.1 µM (inactive)
- GI50 [19]: 20.9 µM (inactive)
- GI50 [21]: 9.48 µM (inactive)
- GI50 [22]: 22.4 µM (inactive)
- GI50 [24]: 21.1 µM (inactive)
- GI50 [25]: > 86.3 µM (inactive)
- GI50 [26]: 8.95 µM (inactive)
- GI50 [27]: 12.9 µM (inactive)
- GI50 [28]: 6.59 µM
- GI50 [29]: 6.43 µM (inactive)
- GI50 [30]: 25 µM (inactive)
- GI50 [31]: 21.8 µM (inactive)
- GI50 [33]: 4.54 µM (inactive)
- GI50 [34]: 29.6 µM (inactive)
- GI50 [35]: 30.5 µM (inactive)
- GI50 [36]: > 58.9 µM (inactive)
- GI50 [37]: 18.4 µM (inactive)
- GI50 [38]: 92.3 µM (inactive)
- GI50 [39]: 40.8 µM (inactive)
- GI50 [57]: 3.01 µM (inactive)
- GI50 [40]: 14.7 µM (inactive)
- GI50 [41]: 20.7 µM (inactive)
- GI50 [42]: 8.41 µM (inactive)
- GI50 [43]: 1.71 µM (inactive)
- GI50 [44]: 30.9 µM (inactive)
- GI50 [45]: 4.68 µM (inactive)
- GI50 [46]: 13.7 µM (inactive)
- GI50 [47]: 5.93 µM (inactive)
- GI50 [48]: 7.82 µM (inactive)
- GI50 [49]: 31 µM (inactive)
- GI50 [50]: 19.7 µM (inactive)
- GI50 [51]: 3.1 µM (inactive)
- GI50 [52]: 16.5 µM (inactive)
- GI50 [53]: 6.47 µM (inactive)
- GI50 [58]: 28.5 µM (inactive)
- GI50 [55]: 13.8 µM (inactive)

Compound: O=C(CSc1nnc(-c2ccc(/N=C\c3ccc(Cl)cc3)cc2)o1)Nc1ccccc1
- GI50 [1]: > 100 µM (inactive)
- GI50 [2]: > 100 µM (inactive)
- GI50 [3]: 58.1 µM (inactive)
- GI50 [4]: 33.1 µM (inactive)
- GI50 [5]: > 100 µM (inactive)
- GI50 [6]: 35.7 µM (inactive)
- GI50 [7]: 89.9 µM (inactive)
- GI50 [8]: > 100 µM (inactive)
- GI50 [9]: 30.1 µM (inactive)
- GI50 [10]: > 100 µM (inactive)
- GI50 [11]: > 100 µM (inactive)
- GI50 [12]: 32.9 µM (inactive)
- GI50 [14]: 16.9 µM (inactive)
- GI50 [15]: 16.6 µM (inactive)
- GI50 [16]: 52 µM (inactive)
- GI50 [18]: 31.6 µM (inactive)
- GI50 [56]: > 100 µM (inactive)
- GI50 [19]: > 100 µM (inactive)
- GI50 [21]: > 100 µM (inactive)
- GI50 [24]: > 100 µM (inactive)
- GI50 [25]: 63.1 µM (inactive)
- GI50 [26]: 33 µM (inactive)
- GI50 [27]: 36.6 µM (inactive)
- GI50 [28]: 68.2 µM
- GI50 [29]: 27.3 µM (inactive)
- GI50 [30]: 43.6 µM (inactive)
- GI50 [31]: > 100 µM (inactive)
- GI50 [32]: 94.8 µM (inactive)
- GI50 [33]: 44.9 µM (inactive)
- GI50 [34]: > 10 µM (inactive)
- GI50 [36]: 53 µM (inactive)
- GI50 [37]: 19.6 µM (inactive)
- GI50 [38]: > 100 µM (inactive)
- GI50 [39]: 50.6 µM (inactive)
- GI50 [57]: 34.4 µM (inactive)
- GI50 [40]: 76 µM (inactive)
- GI50 [41]: 73.8 µM (inactive)
- GI50 [42]: > 100 µM (inactive)
- GI50 [44]: > 100 µM (inactive)
- GI50 [45]: > 100 µM (inactive)
- GI50 [47]: 44.2 µM (inactive)
- GI50 [48]: 98.4 µM (inactive)
- GI50 [49]: > 100 µM (inactive)
- GI50 [50]: 94.4 µM (inactive)
- GI50 [51]: 39.6 µM (inactive)
- GI50 [52]: 50.2 µM (inactive)
- GI50 [53]: 21.5 µM (inactive)
- GI50 [54]: > 100 µM (inactive)
- GI50 [58]: 54.2 µM (inactive)

Compound: CCN1CCC(O)(c2ccc(Cl)cc2)C(C(=O)c2ccc(Cl)cc2)C1 (centres undefined)
- GI50 [1]: > 100 µM (inactive)
- GI50 [2]: > 100 µM (inactive)
- GI50 [4]: 36.6 µM (inactive)
- GI50 [6]: > 100 µM (inactive)
- GI50 [7]: > 100 µM (inactive)
- GI50 [9]: > 100 µM (inactive)
- GI50 [10]: > 100 µM (inactive)
- GI50 [11]: > 100 µM (inactive)
- GI50 [12]: 49.5 µM (inactive)
- GI50 [13]: > 100 µM (inactive)
- GI50 [14]: 20.4 µM (inactive)
- GI50 [15]: > 100 µM (inactive)
- GI50 [16]: > 100 µM (inactive)
- GI50 [17]: > 100 µM (inactive)
- GI50 [18]: 24.4 µM (inactive)
- GI50 [56]: > 100 µM (inactive)
- GI50 [19]: > 100 µM (inactive)
- GI50 [20]: > 100 µM (inactive)
- GI50 [21]: > 100 µM (inactive)
- GI50 [22]: > 100 µM (inactive)
- GI50 [24]: > 100 µM (inactive)
- GI50 [25]: > 100 µM (inactive)
- GI50 [26]: > 100 µM (inactive)
- GI50 [27]: > 100 µM (inactive)
- GI50 [29]: > 100 µM (inactive)
- GI50 [30]: > 100 µM (inactive)
- GI50 [31]: > 100 µM (inactive)
- GI50 [32]: 42 µM (inactive)
- GI50 [33]: 70.3 µM (inactive)
- GI50 [34]: > 100 µM (inactive)
- GI50 [35]: > 100 µM (inactive)
- GI50 [36]: > 100 µM (inactive)
- GI50 [37]: > 100 µM (inactive)
- GI50 [38]: > 100 µM (inactive)
- GI50 [39]: > 100 µM (inactive)
- GI50 [57]: > 100 µM (inactive)
- GI50 [40]: > 100 µM (inactive)
- GI50 [41]: > 100 µM (inactive)
- GI50 [42]: > 100 µM (inactive)
- GI50 [43]: > 100 µM (inactive)
- GI50 [44]: > 100 µM (inactive)
- GI50 [45]: > 100 µM (inactive)
- GI50 [46]: > 100 µM (inactive)
- GI50 [47]: > 100 µM (inactive)
- GI50 [48]: 35.2 µM (inactive)
- GI50 [49]: > 100 µM (inactive)
- GI50 [50]: > 100 µM (inactive)
- GI50 [51]: > 100 µM (inactive)
- GI50 [52]: > 100 µM (inactive)
- GI50 [53]: > 100 µM (inactive)
- GI50 [58]: 22.6 µM (inactive)
- GI50 [55]: 26.2 µM (inactive)
